According to PubChem BioAssay AID2253 (Southern Research Specialized Biocontainment Screening …, 2010):

These compounds were tested on THP-1 viability, CellTiter-Glo luminescence, 72 h (assay: THP-1 cell cytotoxicity, dose response, cytotoxicity control for Salmonella PhoP regulon inhibitors, S. typhimurium screen hits (AID 2253)).

Point of comparison: `CC(C)CCNC(=S)Nc1ccc([N+](=O)[O-])cc1`, EC50 16.5 µM. Against it:
- Cc1cc(C2=NNC(=NC3CC3)SC2)c(C)n1-c1ccccc1 — 2.8-fold higher, 46.9 µM
- CC(=O)NC(c1cccc([N+](=O)[O-])c1)c1ccc2cccnc2c1O (stereo unspecified) — 34-fold lower, 0.49 µM
- Cc1ccc(C[n+]2cc(-c3ccc(Cl)cc3)n3c2CCC3)cc1 — within 1.5-fold, 12 µM
- O=C(CN1CCCc2ccccc21)N/N=C/c1c(O)ccc2ccccc12 — 5.3-fold lower, 3.11 µM
- Clc1c(OCCCn2ccnc2)ccc2ccccc12 — 2.1-fold higher, 35.2 µM
- O=C(Nc1cccc(Cl)c1)Nc1ccc2c(c1)OCO2 — 2.2-fold higher, 36.8 µM
- NCCCC[C@H]1CN=C(N)N1CCC12CC3CC(CC(C3)C1)C2 — 2-fold higher, 33.1 µM
- C/C(CC(=O)Nc1ccc(Cl)c(C(F)(F)F)c1)=N\NC(=O)c1cc2ccccc2cc1O — 2-fold lower, 8.06 µM
- Cc1ccc(-c2csc(N=C(N)N)n2)c(C)c1 — within 1.5-fold, 23.5 µM
- c1csc(C2Nc3cccc4cccc(c34)N2)c1 — 3-fold higher, 48.8 µM
- COc1cccc(C2CC(=O)Nc3cc(OC)c(OC)c(OC)c32)c1OC (stereo unspecified) — 2.8-fold higher, 46.2 µM
- COc1ccc(NC2=NC3(CCCCC3)N=C(N)N2)cc1 — 2.1-fold higher, 35.1 µM
- O=[N+]([O-])c1cc(Cl)c(O)c2ncccc12 — within 1.5-fold, 15 µM
- c1ccc(Nc2ccnc(Nc3ccccc3)n2)cc1 — 2.1-fold higher, 35 µM
- O=C1C(Nc2ccccc2)=C/C(=N/S(=O)(=O)c2cccs2)c2ccccc21 — 11-fold lower, 1.5 µM
- CCOC(=O)c1sc(NC(=O)Nc2ccc(Cl)cc2)cc1C — 1.6-fold lower, 10.3 µM
- Cc1cc(C)c2nc(NNC(=O)c3ccc(S(=O)(=O)N4CCCCC4)cc3)sc2c1 — 3.5-fold lower, 4.69 µM
- Cc1cc2nc3ccc(=[N+](C)C)cc-3sc2cc1N — 16-fold lower, 1 µM
- Cc1cc(C)c2nc(NNC(=O)c3ccc(S(=O)(=O)N4CCc5ccccc5C4)cc3)sc2c1 — 9.8-fold lower, 1.69 µM
- Cc1ccc(Nc2cc(C)nn2-c2nc(C)cc(=O)[nH]2)cc1 — 27-fold lower, 0.62 µM
- CCOC(=O)COc1ccccc1/C=C\[N+](=O)[O-] — 5.8-fold lower, 2.85 µM
- Cc1ccc(S(=O)(=O)c2c(C(=O)c3ccccc3)cnc3cc4c(cc23)OCCO4)cc1 — 1.8-fold higher, 30.2 µM
- OC(COc1ccc2ccccc2c1Br)Cn1ccnc1 (stereo unspecified) — 2.7-fold higher, 43.9 µM
- CCCCCCCCn1c2c(c(=N)c3c1CCC3)CCCC2 — 21-fold lower, 0.78 µM
- O=S(=O)(Nc1ccc2ccccc2c1)c1ccccc1 — 2.9-fold higher, 47.2 µM
- CCN1/C(=C/C=C/C=C/c2sc3ccccc3[n+]2CC)Sc2ccccc21 — 3.6-fold lower, 4.62 µM
- COc1ccc2ccccc2c1/C=N/NC(=O)c1sc(N)c(C#N)c1C — 1.8-fold higher, 30.1 µM
- Oc1ccc(CNc2ccccc2F)c2cccnc12 — 3.3-fold lower, 4.93 µM
- O=C(N/N=C/c1ccc([N+](=O)[O-])s1)C(O)c1ccccc1 (stereo unspecified) — within 1.5-fold, 12.1 µM
- Oc1ccc(NCc2ccccc2OCc2ccccc2F)cc1 — within 1.5-fold, 19.9 µM
- N=c1n(CC(=O)c2ccc([N+](=O)[O-])cc2)c2ccccc2n1Cc1ccccc1 — within 1.5-fold, 14.3 µM
- Cc1ccc2nc(C)c(CN3CCN(c4ccc([N+](=O)[O-])cc4Cl)CC3)n2c1 — within 1.5-fold, 19.7 µM
- O=C1C2=C(NC(=S)NC2c2ccc(Cl)cc2)NC(c2ccc(Cl)cc2)N1c1ccc(Cl)cc1 (stereo unspecified) — within 1.5-fold, 11.3 µM
- Oc1c(I)cc(Cl)c2cccnc12 — within 1.5-fold, 14.4 µM
- Oc1c(CN2CCOCC2)cc(COCc2ccccc2)c2cccnc12 — 5.3-fold lower, 3.1 µM
- O=C(N/N=C/c1cccc([N+](=O)[O-])c1O)c1cccs1 — within 1.5-fold, 13.4 µM
- c1ccc(Nc2nc3ccccc3[nH]2)nc1 — 1.9-fold higher, 30.6 µM
- Clc1ccc(C[n+]2cc(-c3ccc(Cl)cc3)n3c2CCC3)cc1 — within 1.5-fold, 17.7 µM
- O=C(C[n+]1cc(-c2ccc(Cl)cc2)n2c1CCC2)Nc1nc(-c2ccc(F)cc2)cs1 — 1.6-fold higher, 26.7 µM
- Nc1nonc1C(=O)NCCN=Cc1cc(Cc2ccccc2)cc(Br)c1O — 2.3-fold higher, 37.8 µM
- O=S(=O)(c1ccccc1)N(CC(O)Cn1c2ccccc2c2ccccc21)c1ccccc1 (stereo unspecified) — within 1.5-fold, 11.1 µM
- Cc1c(C)n(Cc2ccccc2)c2ncnc(NN)c12 — within 1.5-fold, 23.4 µM
- COc1ccccc1-c1cc(C(=O)Nc2cc(C)nn2-c2ccccc2)no1 — 1.6-fold higher, 25.6 µM
- Clc1ccc(OCCCNCc2ccccc2)c(Br)c1 — within 1.5-fold, 11.5 µM
- CCc1ccc2[nH]c(=O)c(CN(Cc3ccccc3)C(=O)Nc3ccccc3OC)cc2c1 — 2.6-fold higher, 43.1 µM
- c1ccc2c(C3=NNC(=NC4CCCCC4)SC3)c[nH]c2c1 — within 1.5-fold, 19.1 µM
- COc1ccc2c(c1)nc(N)n2Cc1ccccc1 — 2.8-fold higher, 46.3 µM
- Nc1nc2ccccc2n1CCOc1ccccc1Cl — within 1.5-fold, 12.8 µM
- CCCCCCCNC(=O)C1(CC2CC(c3cccc(Br)c3)=NO2)CCNCC1 (stereo unspecified) — 4-fold lower, 4.13 µM
- O=C(N/N=C/c1ccc(F)cc1)c1cc(-c2ccco2)nc2ccccc12 — 2.3-fold higher, 37.9 µM
- Cc1ccc(/C=C/C(=O)c2ccccc(=O)c2O)cc1C — within 1.5-fold, 17.2 µM
- NC1=NC[C@H](Cc2ccccc2)N1CCCCC1CCCCC1 — 4.4-fold lower, 3.71 µM
- CCCC(=O)NC(c1ccc(N(C)C)cc1)c1ccc2cccnc2c1O (stereo unspecified) — 27-fold lower, 0.61 µM
- c1ccc(Cc2nnc(-c3ccccc3)o2)cc1 — 1.9-fold higher, 30.7 µM
- CCCCCCCCCCCCCCCC[N+](C)(C)CC — 24-fold lower, 0.7 µM
- CCOc1ccc(CSC(=N)N)cc1[N+](=O)[O-] — within 1.5-fold, 20.4 µM
- O=C(CSc1nc2ccccc2s1)N/N=C/c1cc([N+](=O)[O-])ccc1O — 1.6-fold higher, 26.4 µM
- N=c1n(Cc2ccccc2)c2ccccc2n1CC(O)COc1ccc(Cl)cc1Cl (stereo unspecified) — 5.7-fold lower, 2.91 µM
- Oc1c(Cl)cc(Cl)c2cccnc12 — within 1.5-fold, 12.8 µM
- CC[C@@H](C)[C@H](CNC)NC[C@@H](Cc1cccc2ccccc12)NCCc1cccc(C(F)(F)F)c1 — 2.4-fold lower, 7 µM
- CCOC(=O)N1CCN(S(=O)(=O)c2ccc(C(=O)NNc3nc4cc(C)cc(C)c4s3)cc2)CC1 — 5.7-fold lower, 2.88 µM
- C#CCOCCOCCOCCNc1nc(N2CCN(C(=O)CCCCCCCCCCNC(=O)[C@H](CO)n3cc(CCCCCN)nn3)CC2)nc(N2CCN(C(=O)CCCCCCCCCCNC(=O)[C@H](CCCN=C(N)N)n3cc(C[C@@H](C)CC)nn3)CC2)n1 — 1.9-fold lower, 8.9 µM
- Oc1c(Cl)cc(Cl)c(Cl)c1Cc1c(O)c(Cl)cc(Cl)c1Cl — within 1.5-fold, 14.7 µM
- O=c1c(Cl)c(Cl)cnn1Cc1ccccc1Cl — 5.6-fold lower, 2.95 µM
- CCN(CC(=O)NC(C)(C)C)C(=O)COc1c(Cl)cc(Cl)c2ccc(C)nc12 — 2.3-fold higher, 37.3 µM
- Nc1c(C(=O)NCCc2ccc(Cl)cc2)sc2ccc(S(=O)(=O)N3CCCCC3)cc12 — 1.9-fold higher, 31.5 µM
- CCN(CC)c1ccc(S(=O)(=O)Nc2cc(Cl)ccc2Cl)cc1NC(=S)NC(=O)C1CCCC1 — 2.4-fold higher, 40 µM
- Cc1ccc(S(=O)(=O)/N=C2/C=C(Sc3ncn[nH]3)C(=O)c3ccccc32)cc1 — 7.7-fold lower, 2.13 µM
- C=COC(=O)CSc1snc(SCC(=O)OC)c1C#N — 2-fold higher, 32.3 µM
- Cc1ccc(C(=O)NNc2c3ccccc3nc3ccccc23)cc1 — 1.7-fold higher, 27.5 µM
- Cc1cc(/C=N/n2cnnc2)c(C)n1-c1ccc(OCc2ccc(F)cc2)cc1 — within 1.5-fold, 12.7 µM
- Clc1ccc(Nc2ncnc3c2cnn3-c2ccccc2)cc1 — 1.8-fold higher, 30.1 µM
- C/C(=N\Nc1nc2ccccc2[nH]1)c1ccccn1 — 18-fold lower, 0.92 µM
- O=Nc1ccc(O)c2ncccc12 — 9.3-fold lower, 1.77 µM
- Oc1ccc(/C=N/Nc2ncc(Br)cn2)c(O)c1 — 5.3-fold lower, 3.1 µM
- COc1cc([N+](=O)[O-])cc(/C=N\NC(=O)C2COc3ccccc3O2)c1O (stereo unspecified) — within 1.5-fold, 19.6 µM
- CC1(C)SC(=S)N(NC(=O)Nc2ccccc2)C1N(O)C(=O)Nc1ccccc1 (stereo unspecified) — 2.3-fold higher, 37.8 µM
- C1=C(CCNc2ncnc3c2[nH]c2ccccc23)CCCC1 — 2.6-fold lower, 6.37 µM
- CCN1CCN(C(c2cccnc2)c2cc(Cl)c3cccnc3c2O)CC1 (stereo unspecified) — 2-fold lower, 8.34 µM
- S=C(NCc1cccnc1)Nc1ccc(Cl)c(Cl)c1 — 2.4-fold higher, 40 µM
- Cc1ccc(S(=O)(=O)/N=C2/C=C(Sc3ncn[nH]3)C(=O)c3ccccc32)c(C)c1 — 3-fold lower, 5.51 µM
- Oc1ccc(/C=N/Nc2nccnc2Cl)c(O)c1 — 12-fold lower, 1.39 µM
- Oc1cccc2ccc[n+](CC(O)Cn3c4ccccc4c4ccccc43)c12 (stereo unspecified) — within 1.5-fold, 11.1 µM
- O=C(NNc1c2ccccc2nc2ccccc12)c1cccc(O)c1 — within 1.5-fold, 23.2 µM
- Clc1ccc(OCCn2ccnc2)c2ccccc12 — 2.6-fold higher, 43.5 µM
- Nc1nonc1-n1nnc(C(=O)N/N=C/c2ccc(Br)cc2)c1CSC1=NCCS1 — within 1.5-fold, 23.7 µM
- Cc1onc(-c2ccccc2)c1C(=O)NC(=S)NNC(=O)c1ccc(O)cc1O — 8.8-fold lower, 1.87 µM
- CC(CO)(CO)NCc1ccc(-c2ccccc2)cc1 — within 1.5-fold, 15 µM
- O=[N+]([O-])c1ccc(O)c(/C=N/Nc2ccccn2)c1 — 39-fold lower, 0.42 µM
- CCCCCCCCCn1c2c(c(=N)c3c1CCC3)CCC2 — 39-fold lower, 0.42 µM
- O=C(O)CSc1cc(NS(=O)(=O)c2cccc([N+](=O)[O-])c2)c2ccccc2c1O — 2-fold lower, 8.07 µM
- CCCCOc1ccc(CSC(=N)N)cc1[N+](=O)[O-] — the same, 16.5 µM
- CCCCC1(CCCC)C(=O)NC(=Nc2cccc(C)c2)NC1=O — 2.4-fold higher, 39.1 µM
- CCCCCCCCn1c2c(c(=N)c3ccccc31)CCC2 — 17-fold lower, 0.98 µM
- COc1ccc(NS(=O)(=O)c2cc(C)ccc2NC(=O)c2cc(C)oc2C)cc1 — 63-fold lower, 0.26 µM
- Cc1[nH]n(-c2ncc(-c3ccc(Cl)cc3)s2)c(=O)c1C(c1ccc(Cl)cc1)C(C#N)C#N (stereo unspecified) — 2.7-fold higher, 45 µM
- CCOc1ccc(Nc2nc(N)c3ccccc3n2)cc1 — 2.3-fold lower, 7.05 µM
- OCCN1CCN(Cc2cc(Cl)c3cccnc3c2O)CC1 — within 1.5-fold, 12 µM
- Cc1ccc(C)c(-c2nc3ccc(N)cc3[nH]2)c1 — 1.6-fold lower, 10.5 µM
- CCCCCCCCCn1c2c(c(=N)c3c1CCC3)CCCC2 — 45-fold lower, 0.37 µM
- COc1ccc(C(=O)N/N=C/c2sc3ccccc3c2O)cc1 — 5.3-fold lower, 3.13 µM
- COc1ccc(C)cc1C(=O)CCC(=O)Nc1ccccc1N1CCOCC1 — 2-fold lower, 8.33 µM
- Cc1ccc(Cn2c(=N)n(CC(=O)c3ccc([N+](=O)[O-])cc3)c3ccccc32)cc1 — 2-fold lower, 8.18 µM
- Cc1ccc(-n2sc3ccccc3c2=O)cc1S(=O)(=O)N1CCCCC1 — 6-fold lower, 2.75 µM
- CC(=O)Nc1cc(N=Cc2ccc(O)cc2O)c(Cl)cc1Cl — 2.7-fold higher, 45.3 µM
- CCCCCOc1ccc(CSC(=N)N)cc1[N+](=O)[O-] — 2.1-fold lower, 7.91 µM
- Cc1cc(-c2csc(N)n2)c(C)n1-c1ccccc1 — within 1.5-fold, 16.9 µM
- O=C(Cc1n[nH]c(=O)c2ccccc12)OCC(=O)c1ccc2c(c1)OCCO2 — 12-fold lower, 1.34 µM
- Cc1cccc(Nc2c3c(nc4ccccc24)CCC3)c1 — 1.8-fold lower, 9.08 µM
- CSc1ccc2c(c1)C(N1CCN(C)CC1)Cc1ccccc1S2 (stereo unspecified) — 1.6-fold lower, 10.6 µM
- COC(=O)c1c(NC(=O)c2ccc([N+](=O)[O-])o2)sc2c1CCN(C(C)C)C2 — 14-fold lower, 1.2 µM
- Nc1cccc2nc3ccccc3cc12 — 3.9-fold lower, 4.25 µM
- CN(Cc1ccccc1)CC(O)COc1ccc(CNCc2ccc(Cl)s2)cc1 (stereo unspecified) — 2-fold higher, 33.4 µM
- COc1ccc(CNC[C@@H](CCCCN(C)Cc2ccc(OC)cc2)N2C[C@H](c3ccccc3)N(CCc3ccc(Cl)c(Cl)c3)C(=O)C2=O)cc1 — 4.2-fold lower, 3.93 µM
- CC(=O)Oc1cc2cccc(OC(C)=O)c(=O)c2c(OC(C)=O)c1OC(C)=O — within 1.5-fold, 14.6 µM
